Data reported in ChEMBL document CHEMBL1143045, “Tricyclic isoxazolines: identification of R226161 as a potential new antidepressant that combines potent serotonin reuptake inhibition and alpha2-adrenoceptor antagonism” (Bioorg Med Chem, 2007).

What was measured:
[1] = target: T1, Alpha-2A adrenergic receptor (Homo sapiens, UniProt P08913); assay: Displacement of [3H]rawolscine from human cloned adrenergic alpha2A receptor transfected in CHO cells; format: cell-based
T1 sequence (P08913 whole entry): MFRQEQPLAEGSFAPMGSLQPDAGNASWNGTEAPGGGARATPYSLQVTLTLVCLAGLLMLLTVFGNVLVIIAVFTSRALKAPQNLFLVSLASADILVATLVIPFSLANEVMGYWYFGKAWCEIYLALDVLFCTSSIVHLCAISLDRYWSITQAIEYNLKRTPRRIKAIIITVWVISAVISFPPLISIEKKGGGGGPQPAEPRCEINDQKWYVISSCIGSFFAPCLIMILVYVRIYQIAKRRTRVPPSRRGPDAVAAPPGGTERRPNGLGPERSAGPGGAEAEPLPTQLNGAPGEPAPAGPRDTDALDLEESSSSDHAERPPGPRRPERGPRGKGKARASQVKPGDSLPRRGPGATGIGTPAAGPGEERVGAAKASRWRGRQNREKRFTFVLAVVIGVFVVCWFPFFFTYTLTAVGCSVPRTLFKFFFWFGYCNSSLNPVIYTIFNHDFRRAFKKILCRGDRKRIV

[2] = target: T2, Alpha-2B adrenergic receptor (Homo sapiens, UniProt P18089); assay: Displacement of [3H]rawolscine from human cloned adrenergic alpha-2B receptor transfected in CHO cells; format: cell-based
T2 sequence (P18089 whole entry): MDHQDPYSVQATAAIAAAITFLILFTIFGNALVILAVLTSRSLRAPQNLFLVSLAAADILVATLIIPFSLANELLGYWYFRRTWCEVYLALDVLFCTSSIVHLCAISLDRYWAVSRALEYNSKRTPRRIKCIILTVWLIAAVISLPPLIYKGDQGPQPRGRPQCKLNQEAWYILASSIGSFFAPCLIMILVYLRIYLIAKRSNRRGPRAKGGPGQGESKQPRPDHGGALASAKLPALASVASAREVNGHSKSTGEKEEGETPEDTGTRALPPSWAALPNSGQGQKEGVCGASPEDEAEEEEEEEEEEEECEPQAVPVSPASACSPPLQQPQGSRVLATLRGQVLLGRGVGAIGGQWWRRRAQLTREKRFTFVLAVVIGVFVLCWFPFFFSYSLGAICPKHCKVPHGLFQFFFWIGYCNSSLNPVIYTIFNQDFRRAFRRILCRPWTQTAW

[3] = target: T3, Alpha-2C adrenergic receptor (Homo sapiens, UniProt P18825); assay: Displacement of [3H]rawolscine from human cloned adrenergic Alpha-2C receptor transfected in CHO cells; format: cell-based
T3 sequence (P18825 whole entry): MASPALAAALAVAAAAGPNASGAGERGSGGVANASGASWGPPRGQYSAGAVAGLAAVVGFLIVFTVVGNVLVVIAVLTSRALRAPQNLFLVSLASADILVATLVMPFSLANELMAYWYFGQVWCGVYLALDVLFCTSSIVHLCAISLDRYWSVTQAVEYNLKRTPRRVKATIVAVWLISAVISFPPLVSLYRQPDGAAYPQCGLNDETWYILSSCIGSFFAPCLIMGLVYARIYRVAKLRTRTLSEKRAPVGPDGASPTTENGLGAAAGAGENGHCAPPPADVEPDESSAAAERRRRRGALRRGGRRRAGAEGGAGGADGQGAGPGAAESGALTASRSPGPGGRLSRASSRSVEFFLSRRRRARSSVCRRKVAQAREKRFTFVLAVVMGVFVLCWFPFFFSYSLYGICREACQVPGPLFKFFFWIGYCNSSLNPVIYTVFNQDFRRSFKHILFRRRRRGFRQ

[4] = target: Sodium-dependent serotonin transporter (Homo sapiens, UniProt P31645); assay: Displacement of [3H]paroxetine from human cloned 5HTT receptor transfected in CHO cells; format: cell-based
[5] = target: Adrenergic receptor alpha-2 (Rattus norvegicus) (UniProt P22086+P19328+P22909); assay: Reversal of medetomidine-induced loss of righting reflex in sc dosed Wistar rat after 1hr; format: functional, organism-based
[6] = target: Sodium-dependent serotonin transporter (Rattus norvegicus) (UniProt P31652); assay: Antagonism of p-chloroamphetamine-induced excitation in sc dosed Wistar rat after 1 hr; format: functional, organism-based
Sequence of Sodium-dependent serotonin transporter (Rattus norvegicus) (P31652 whole entry): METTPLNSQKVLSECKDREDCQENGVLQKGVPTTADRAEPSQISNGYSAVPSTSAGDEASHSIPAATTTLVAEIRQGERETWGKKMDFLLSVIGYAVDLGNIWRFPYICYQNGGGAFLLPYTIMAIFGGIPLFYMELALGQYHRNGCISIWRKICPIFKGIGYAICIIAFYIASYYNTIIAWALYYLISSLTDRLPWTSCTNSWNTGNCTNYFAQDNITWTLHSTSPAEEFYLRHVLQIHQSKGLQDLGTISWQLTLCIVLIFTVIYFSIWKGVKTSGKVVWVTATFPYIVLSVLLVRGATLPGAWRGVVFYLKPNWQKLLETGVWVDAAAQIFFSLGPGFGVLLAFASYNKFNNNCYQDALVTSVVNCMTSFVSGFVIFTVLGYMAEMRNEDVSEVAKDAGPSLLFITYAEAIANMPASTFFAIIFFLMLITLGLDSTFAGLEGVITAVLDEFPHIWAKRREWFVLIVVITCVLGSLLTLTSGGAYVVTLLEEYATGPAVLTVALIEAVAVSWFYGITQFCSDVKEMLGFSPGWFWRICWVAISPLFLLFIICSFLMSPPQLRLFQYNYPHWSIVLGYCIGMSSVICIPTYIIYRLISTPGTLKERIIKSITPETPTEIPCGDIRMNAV

Sequence of Sodium-dependent serotonin transporter (P31645 whole entry): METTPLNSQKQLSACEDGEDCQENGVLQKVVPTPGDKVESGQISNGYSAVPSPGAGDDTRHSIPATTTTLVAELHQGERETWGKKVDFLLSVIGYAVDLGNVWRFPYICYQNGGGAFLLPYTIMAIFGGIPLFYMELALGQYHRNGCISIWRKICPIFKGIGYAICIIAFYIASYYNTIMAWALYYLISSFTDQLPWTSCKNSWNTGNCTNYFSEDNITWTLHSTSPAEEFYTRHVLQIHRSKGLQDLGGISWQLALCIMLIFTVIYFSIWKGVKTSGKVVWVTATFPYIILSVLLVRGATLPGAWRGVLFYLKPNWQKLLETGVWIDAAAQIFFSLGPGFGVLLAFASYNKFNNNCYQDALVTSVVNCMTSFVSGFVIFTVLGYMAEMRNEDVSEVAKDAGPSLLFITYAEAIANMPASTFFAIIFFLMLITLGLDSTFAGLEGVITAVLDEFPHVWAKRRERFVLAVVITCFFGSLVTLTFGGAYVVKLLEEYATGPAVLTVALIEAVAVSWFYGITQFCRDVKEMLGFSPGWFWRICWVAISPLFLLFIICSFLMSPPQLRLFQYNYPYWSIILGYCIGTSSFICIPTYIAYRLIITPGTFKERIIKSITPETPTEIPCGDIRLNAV

| Ki [1] [nM] | Ki [2] [nM] | Ki [3] [nM] | Ki [4] [nM] | ED50 [5] [mg/kg] | ED50 [6] [mg/kg] | SMILES |
| --- | --- | --- | --- | --- | --- | --- |
| 117 | 162 | 72 | 14 | – | – | COc1cc2c(cc1OC)C1=NOC(CN3CCN(C/C=C/c4ccc(F)cc4)CC3)C1CO2 (cis isomer) |
| 9 | 25 | 23 | 5.6 | – | – | COc1cc2c(cc1OC)C1=NOC(CN3CCN(C/C=C/c4ccc(F)cc4)CC3)C1CO2 (racemic) [listing 1 of 2 here] |
| – | 8.4 | – | – | – | – | COc1cc2c(cc1OC)C1=NO[C@@H](CN3CCN(C/C(C)=C/c4ccc(F)cc4)CC3)[C@@H]1CO2 (racemic) [listing 1 of 2 here] |
| – | 12 | 0.1 | 8.9 | – | – | COc1cc2c(cc1OC)C1=NOC(CN3CCN(C/C(C)=C/c4ccccc4)CC3)C1CN2 (racemic) [listing 1 of 2 here] |
| – | – | – | – | 0.2 | 2.2 | COc1cc2c(cc1OC)C1=NOC(CN3CCN(C/C(C)=C/c4ccccc4)CC3)C1CN2 (racemic) [listing 2 of 2 here] |
| – | – | – | – | 0.1 | 4.7 | COc1cc2c(cc1OC)C1=NOC(CN3CCN(C/C=C/c4ccc(F)cc4)CC3)C1CO2 (racemic) [listing 2 of 2 here] |
| – | – | – | – | 0.1 | – | COc1cc2c(cc1OC)C1=NO[C@@H](CN3CCN(C/C(C)=C/c4ccc(F)cc4)CC3)[C@@H]1CO2 (racemic) [listing 2 of 2 here] |
| 54 | 14 | 4.5 | 2.1 | – | – | COc1cc2c(cc1OC)C1=NOC(CN3CCN(C/C=C/c4ccc(F)cc4)CC3)C1CO2 (single isomer, unassigned; (+)) |
